Consider 79 compounds from the RepoRT retention time repository (doi:10.1016/j.scitotenv.2015.08.078).

A short description of this data set: RP, Waters ACQUITY UPLC BEH C18, 100 × 2.1 mm, 1.7 µm, 0.3 mL/min, estimated dead time 0.73 min; A: water + 0.1% formic acid, pH 3; B: methanol + 0.1% formic acid, pH 3; gradient (min/%B) 0/10 14/90 16/90 18/10. As to conditions: stereoisomer not certain.
`CCC(C)(C)C(=O)OC1CC(C)C=C2C=CC(C)C(CCC3CC(O)CC(=O)O3)C21` (centres undefined) [Simvastatin]: the LC retention time is 14.2 min.
For `COP(=S)(OC)Oc1nc(Cl)c(Cl)cc1Cl` [Chlorpyriphos-methyl], the LC retention time was 12.1 min.
As for `CC(C)Nc1nc(Cl)nc(NC(C)C)n1` [Propazine], the figure is 9.88 min.
Take `CCCCC(O)(Cn1cncn1)c1ccc(Cl)cc1Cl` (centres undefined) [Hexaconazole]: the LC retention time was 12 min.
As for `O=C1CN=C(c2ccccc2F)c2cc(Cl)ccc2N1` [Desalkyl-flurazepam], the figure is 10 min; as for `CN1COCN(Cc2cnc(Cl)s2)C1=N[N+](=O)[O-]` [Thiamethoxam], 3.27 min.
As for `OC(CCCN1CCN(c2ccccn2)CC1)c1ccc(F)cc1` (centres undefined) [Azaperol], the figure is 4.96 min; as for `CCNc1nc(Cl)nc(NC(C)(C)C#N)n1` [Cyanazine], 7.05 min; as for `CC1COc2ccccc2N1C(=O)C(Cl)Cl` (centres undefined) [Benoxacor], 9.47 min.
As to `CC(C)c1ncc([N+](=O)[O-])n1C` [Ipronidazole (IPZ)], the LC retention time was 5.42 min.
Next, `CCSC(=O)N(CC)C1CCCCC1` [Cycloate]: 12.3 min.
Regarding `CC1CC2C3CC(F)C4=CC(=O)C=CC4(C)C3(F)C(O)CC2(C)C1(O)C(=O)CO` (centres undefined) [Flumethasone], the LC retention time was 9.72 min.
For the compound `CCOP(=S)(OCC)Oc1cc(C)nc(C(C)C)n1` [Diazinon], the LC retention time is 12.5 min.
As to `CCNc1nc(Cl)nc(NC(C)(C)C)n1` [Terbuthylazine], the LC retention time was 10.5 min.
On to `COc1ccc(-c2ccccc2)cc1NNC(=O)OC(C)C` [Bifenazate], for which the LC retention time is 10.8 min.
Next, `CCC(CC)Nc1c([N+](=O)[O-])cc(C)c(C)c1[N+](=O)[O-]` [Pendimethalin]: 14.2 min; `Fc1ccc(C2CCNCC2COc2ccc3c(c2)OCO3)cc1` (centres undefined) [Paroxetine]: 9.22 min; `COCC1OC(=O)c2coc3c2C1(C)C1=C(C3=O)C2CCC(=O)C2(C)CC1OC(C)=O` (centres undefined) [Wortmannin]: 7.75 min.
For `COCCN(C(=O)CCl)c1c(C)cccc1C` [Dimethachlor], the LC retention time was 9.39 min.
As for `CC(C)(C)c1ccc(CSc2cnn(C(C)(C)C)c(=O)c2Cl)cc1` [Pyridaben], the LC retention time is 14 min.
Next, `CSc1nc(N)nc(NC(C)(C)C)n1` [Deethylterbutryn]: 9.3 min.
With `CCNc1nc(NC(C)(C)C)nc(OC)n1` [Terbumeton], the LC retention time was 8.02 min.
As for `COP(=O)(OC)Oc1ccc(SC)c(C)c1` [Fenthion oxon], the LC retention time was 9.48 min.
For the compound `O=C1Nc2ccc(Cl)cc2C(c2ccccc2Cl)=NC1O` (centres undefined) [Lorazepam], the LC retention time is 9.87 min.
As for `FC(F)C(F)(F)OCC(Cn1cncn1)c1ccc(Cl)cc1Cl` (centres undefined) [Tetraconazole], the figure is 11.6 min; as for `CNc1nc(NC(C)C)nc(SC)n1` [Desmetryn], 8.78 min.
Next, `Cc1nc(N(C)C)nc(OC(=O)N(C)C)c1C` [Pirimicarb]: 5.67 min.
`COc1cc(OC)nc(NC(=O)NS(=O)(=O)N(C)S(C)(=O)=O)n1` [Amidosulfuron]: the LC retention time is 4.59 min.
Consider `CCOP(=S)(OCC)Oc1cc(C)nc(N(CC)CC)n1` [Pirimiphos-ethyl], for which the LC retention time was 13 min.
For `CCc1ccc(C(=O)NN(C(=O)c2cc(C)cc(C)c2)C(C)(C)C)cc1` [Tebufenozide], the LC retention time is 11.5 min.
On to `CC(N)Cc1ccccc1` (centres undefined) [Amphetamine], for which the LC retention time is 3.59 min.
`CCSCc1ccccc1OC(=O)NC` [Ethiofencarb]: the LC retention time was 8.89 min.
As for `CCC1OC(=O)C(C)C(OC2CC(C)(OC)C(O)C(C)O2)C(C)C(OC2OC(C)CC(N(C)C)C2O)C(C)(O)CC(C)C(=NOCOCCOC)C(C)C(O)C1(C)O` (centres undefined) [Roxithromycin], the figure is 10.7 min.
For the compound `COC(=O)c1ccccc1CS(=O)(=O)NC(=O)Nc1nc(OC)cc(OC)n1` [Bensulfuron methyl], the LC retention time was 9.29 min.
Next, `CC(C)c1c(C(=O)Nc2ccccc2)c(-c2ccccc2)c(-c2ccc(F)cc2)n1CCC(O)CC(O)CC(=O)O` (centres undefined) [Atorvastatin]: 12 min.
Next, `COC(=O)c1ccccc1S(=O)(=O)NC(=O)Nc1nc(C)nc(OC)n1` [Metsulfuron methyl]: 5 min; `C=CCC1=C(C)C(OC(=O)C2C(C=C(C)C)C2(C)C)CC1=O` (centres undefined) [Allethrin]: 13.1 min.
In the case of `O=C(Nc1ccccc1)Nc1cnns1` [Thidiazuron], the LC retention time is 7.36 min.
Turning to `CC1=CC2OC3C(O)CC(C)(C34CO4)C2(CO)C(O)C1=O` (centres undefined) [Deoxynivalenol], the LC retention time is 2.83 min.
As for `N#CN=C1SCCN1Cc1ccc(Cl)nc1` [Thiacloprid], the figure is 6.28 min; as for `CCCCC1C(=O)N(c2ccccc2)N(c2ccc(O)cc2)C1=O` (centres undefined) [Oxyphenylbutazone], 9.97 min; as for `CCS(=O)(=O)Cc1ccccc1OC(=O)NC` [Ethiofencarb sulfone], 4.07 min.
As for `CCOP(=S)(OCC)Oc1ccc2c(C)c(Cl)c(=O)oc2c1` [Coumaphos], the figure is 12.4 min.
Next, `CC12CCC(=O)C=C1CCC1C2C(=O)CC2(C)C1CCC2(O)C(=O)CO` (centres undefined) [Cortisone]: 8.13 min.
Take `CN(C(=O)COc1nc2ccccc2s1)c1ccccc1` [Mefenacet]: the LC retention time is 10.7 min.
For the compound `CCCC1COC(Cn2cncn2)(c2ccc(Cl)cc2Cl)O1` (centres undefined) [Propiconazole], the LC retention time is 12.5 min.
Next, `CC(C)(CO)NCC(O)c1cc(Cl)c(N)c(Cl)c1` (centres undefined) [Hydroxymethyl clenbuterol]: 4.17 min; `COP(=S)(OC)Oc1ccc(S(C)=O)c(C)c1` (centres undefined) [Fenthion sulfoxide]: 7.8 min.
Regarding `Clc1ccccc1CN1CCc2sccc2C1` [Ticlopidine], the LC retention time is 12.1 min.
`CCOP(=S)(OCC)Oc1ccc([N+](=O)[O-])cc1` [Parathion]: the LC retention time is 11.3 min.
Next, `CS(=O)(=O)c1ccc(C(=O)C2C(=O)CCCC2=O)c([N+](=O)[O-])c1` [Mesotrione]: 5.53 min; `CC1Cc2c(Cl)cc(C(=O)O)c(O)c2C(=O)O1` (stereo not drawn) [Ochratoxin Alpha]: 11.2 min.
For the compound `CNC(=O)ON=C(SC)C(=O)N(C)C` [Oxamyl], the LC retention time is 2.84 min.
On to `CCNC(C)Cc1ccc2c(c1)OCO2` (centres undefined) [MDEA], for which the LC retention time was 4.27 min.
Next, `COCC(=O)N(c1c(C)cccc1C)C(C)C(=O)OC` (centres undefined) [Metalaxyl]: 9.73 min; `COc1cc(OC)nc(NC(=O)NS(=O)(=O)c2ncccc2C(=O)N(C)C)n1` [Nicosulfuron]: 5.39 min; `CC12C=CC(=O)C=C1CCC1C2CCC2(C)C(=O)CCC12` (centres undefined) [1.4-Androstadiene-3.17-dione (Boldione)]: 9.82 min.
Next, `CCCSP(=O)(OCC)Oc1cnn(-c2ccc(Cl)cc2)c1` (centres undefined) [Pyraclofos]: 12 min; `CCn1cc(C(=O)O)c(=O)c2cnc(N3CCNCC3)nc21` [Pipemidic acid]: 3.48 min.
As for `Cc1c(N)c(=O)n(-c2ccccc2)n1C` [4-amino-antipyrine], the figure is 2.92 min; as for `CCNP(=S)(OC)OC(C)=CC(=O)OC(C)C` (centres undefined) [Propetamphos], 10.6 min; as for `CCCCN(CC)C(=O)SCCC` [Pebulate (Tillam)], 12.1 min.
On to `CCCCNC(=O)n1c(NC(=O)OC)nc2ccccc21` [Benomyl], for which the LC retention time is 11.6 min.
As for `O=c1c2cc(F)ccc2nc(-n2cncn2)n1-c1ccc(Cl)cc1Cl` [Fluquinconazole], the figure is 10.7 min.
On to `CCOCN(C(=O)CCl)c1c(C)cccc1CC` [Acetochlor], for which the LC retention time is 11.1 min.
As for `CCC(C)(C)NCC(O)c1cc(Cl)c(N)c(C(F)(F)F)c1` (centres undefined) [Mapenterol], the figure is 7.01 min; as for `CCOc1ccccc1OS(=O)(=O)NC(=O)Nc1nc(OC)cc(OC)n1` [Ethoxysulfuron], 8.41 min; as for `CC(C)Oc1cccc(NC(=O)c2ccccc2C(F)(F)F)c1` [Flutolanil], 10.5 min.
As for `CCN(CC)C(=O)SCc1ccc(Cl)cc1` [Thiobencarb], the figure is 12.9 min.
Next, `COP(=S)(OC)Oc1ccc([N+](=O)[O-])c(C)c1` [Fenitrothion]: 10.5 min; `CCOP(=S)(OCC)Oc1ccc(Cl)cc1Cl` [Dichlofenthion]: 13.4 min.
For `CCC(=O)C(CC(C)N(C)C)(c1ccccc1)c1ccccc1` (centres undefined) [Methadone], the LC retention time was 10.4 min.
For `Cc1cc(C)nc(Nc2ccccc2)n1` [Pyrimethanil], the LC retention time is 9.86 min.
For `COC1C(OC(C)=O)CC(=O)OC(C)CC=CC=CC(O)C(C)CC(CC=O)C1OC1OC(C)C(OC2CC(C)(O)C(OC(=O)CC(C)C)C(C)O2)C(N(C)C)C1O` (centres undefined) [Josamycin], the LC retention time is 11.4 min.
As for `CCCCC(C)C(OC(=O)CC(CC(=O)O)C(=O)O)C(CC(C)CCCCCCC(O)CC(O)C(C)N)OC(=O)CC(CC(=O)O)C(=O)O` (centres undefined) [Fumonisin B2], the figure is 11 min.
As for `CSc1nc(NC(C)C)nc(NC(C)C)n1` [Prometryn], the LC retention time is 10.8 min.
As for `CCc1cccc(CC)c1N(COC)C(=O)CCl` [Alachlor], the figure is 11.7 min.
As for `CCN(CC)c1nc(C)cc(OP(=S)(OC)OC)n1` [Pirimiphos-methyl], the figure is 12.4 min.
On to `COP(=O)(OC)Oc1ccc(S(C)(=O)=O)c(C)c1` [Fenoxon sulfone], for which the LC retention time is 5.35 min.
